The compounds below were run against IDO1 (Homo sapiens, UniProt P14902) (assay: IDO1 Cellular Assay in HeLa Cells Stimulated with IFNγ). Details: about 48 hours, read-out: Hela IC50.
Assay type: cell-based

IDO1, sequence (P14902 whole entry): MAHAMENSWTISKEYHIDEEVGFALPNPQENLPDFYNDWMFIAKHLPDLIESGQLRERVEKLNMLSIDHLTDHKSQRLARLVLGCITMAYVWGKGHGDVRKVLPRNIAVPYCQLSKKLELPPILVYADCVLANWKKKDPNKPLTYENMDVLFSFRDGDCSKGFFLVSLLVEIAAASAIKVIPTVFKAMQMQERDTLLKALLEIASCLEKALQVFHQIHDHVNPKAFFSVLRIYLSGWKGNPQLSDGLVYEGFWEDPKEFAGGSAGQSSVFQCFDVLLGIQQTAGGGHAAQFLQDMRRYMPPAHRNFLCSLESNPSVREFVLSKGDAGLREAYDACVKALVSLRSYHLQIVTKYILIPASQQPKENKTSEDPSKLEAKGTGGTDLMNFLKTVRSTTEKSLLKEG

| IC50 | Structure (SMILES) |
| --- | --- |
| 5.8 nM | CC(C(=O)Nc1ccc(F)cc1)c1ccc2c(c1)CCCN2C(=O)C1CC1 (centres unmarked) [Example 36, 2-[1-(cyclopropanecarbonyl)-1,2,3,4-tetrahydroquinolin-6-yl]-N-(4-fluorophenyl)propanamide] |
| 1620 nM | CC(NC(=O)c1ccc(F)cc1)c1ccc2c(n1)CCCN2C(=O)C1(C)CCCCO1 (stereo in doubt) [Example 140, 4-fluoro-N-(1-{5-[(2R)-2-methyloxane-2-carbonyl]-5,6,7,8-tetrahydro-1,5-naphthyridin-2-yl}ethyl)benzamide] |
| 4.6 nM | Cc1cnc(C(=O)N2CCCc3cc(C(C)C(=O)Nc4ccc(F)cc4)ccc32)s1 (centres unmarked) [Example 41, N-(4-fluorophenyl)-2-[1-(5-methyl-1,3-thiazole-2-carbonyl)-1,2,3,4-tetrahydroquinolin-6-yl]propanamide] |
| 2.3 nM | O=C(NC1(c2ccc3c(n2)CCCN3C(=O)c2cccc(Cl)c2)CC1)c1ccc(F)cc1 [Example 171, N-{1-[5-(3-chlorobenzene-1-carbonyl)-5,6,7,8-tetrahydro-1,5-naphthyridin-2-yl]cyclopropyl}-4-fluorobenzamide] |
| 1.9 nM | O=C([C@H]1CCCO1)N1CCCc2nc(C3(C(=O)Nc4ccc(F)cc4)CCC3)ccc21 [Example 180, N-(4-fluorophenyl)-1-{5-[(2R)-oxolane-2-carbonyl]-5,6,7,8-tetrahydro-1,5-naphthyiridin-2-yl}cyclobutane-1-carboxamide] |
| 45 nM | Cc1cc(C(=O)NCc2ccc3c(c2)CCCN3C(=O)c2cccc(Cl)c2)no1 [Example 22, N-{[1-(3-chlorobenzene-1-carbonyl)-1,2,3,4-tetrahydroquinolin-6-yl]methyl}-5-methyl-1,2-oxazole-3-carboxamide] |
| 1.5 nM | COC(=O)N1CCCc2nc(C3(C(=O)Nc4ccc(F)cc4)CCC3)ccc21 [Example 216, methyl 6-{1-[(4-fluorophenyl)carbamoyl]cyclobutyl}-3,4-dihydro-1,5-naphthyridine-1(2H)-carboxylate] |
| 1.9 nM | COC(=O)N1CCCc2nc(C(C)C(=O)Nc3ccc(F)cc3)ccc21 (centres unmarked) [Example 220, methyl 6-{1-[(4-fluorophenyl)amino]-1-oxopropan-2-yl}-3,4-dihydro-1,5-naphthyridine-1(2H)-carboxylate] |
| 16.1 nM | O=C(NC1(c2ccc3c(n2)CCCN3C(=O)C2CCOCC2)CC1)c1ccc(F)cc1 [Example 172, 4-fluoro-N-{1-[5-(oxane-4-carbonyl)-5,6,7,8-tetrahydro-1,5-naphthyridin-2-yl]cyclopropyl}benzamide] |
| 2540 nM | C[C@H](C(=O)Nc1ccc(F)cc1)c1ccc2c(c1)CCCN2C(=O)CC#N [Example 85, (2S)-2-[1-(cyanoacetyl)-1,2,3,4-tetrahydroquinolin-6-yl]-N-(4-fluorophenyl)propanamide] |
| 5.9 nM | CC(C)(C(=O)Nc1ccc(F)cc1)c1ccc2c(n1)CCCN2C(=O)C1CCOCC1 [Example 186, N-(4-fluorophenyl)-2-methyl-2-[5-(oxane-4-carbonyl)-5,6,7,8-tetrahydro-1,5-naphthyridin-2-yl]propanamide] |
| 435 nM | CC(C)n1cc(C(=O)NCc2ccc3c(c2)CCCN3C(=O)c2cccc(Cl)c2)cn1 [Example 19, N-{[1-(3-chlorobenzene-1-carbonyl)-1,2,3,4-tetrahydroquinolin-6-yl]methyl}-1-(propan-2-yl)-1H-pyrazole-4-carboxamide] |

Same assay, conditions: read-out: Hela IC50

| IC50 | Structure (SMILES) |
| --- | --- |
| 5700 nM | CC(NC(=O)c1cccc(C#N)c1)c1ccc2c(n1)CCCN2C(=O)OC1CC1 (centres unmarked) [Example 335, cyclopropyl 6-(1-(3-cyanobenzamido)ethyl)-3,4-dihydro-1,5-naphthyridine-1(2H)-carboxylate] |
| 161 nM | COc1ccc(C(=O)NC(C)c2ccc3c(n2)CCCN3C(=O)OC2CC2)cc1 (centres unmarked) [Example 338, cyclopropyl 6-(1-(4-methoxybenzamido)ethyl)-3,4-dihydro-1,5-naphthyridine-1(2H)-carboxylate] |
